A word on the IC90: it is the point of the concentration-response curve where the effect stands at 90%. A word on the IC99: it is the concentration at which the effect reaches the 99% level.

The source of these data is patent US10301294B2, “Compounds for the treatment of tuberculosis” (priority 2013, dated 2019).

The test system of test [1] is replicating M. tuberculosis H37Rv. Briefly: microbe, parasite or virus in culture. The class given is cell-based. The conditions noted are these: None = inhibition did not reach 90%; for IC90: Mycobacterium tuberculosis, H37RV, read-out: Against Replicating Mtb IC90 (uM, GFP).
Test [2] relates to carbon-starved M. tuberculosis H37Rv. The test is described as follows: Non-replicating IC90 determination by luciferase (carbon-starved cells). The class given is cell-based. As to conditions: luciferase; for IC90 / IC99: Mycobacterium tuberculosis, H37RV; for IC90: IC90 given in brackets beside IC99, read-out: Against carbon starved non-replicating Mtb IC90 (in brackets, luciferase); for Against carbon starved non-replicating Mtb IC99 (uM, luciferase) / IC99: None = inhibition did not reach 99%; for IC99: 120 h, read-out: Against carbon starved non-replicating Mtb IC99 (uM, luciferase).

For `Fc1ccc(-c2nnc(SCCN3CCC(F)(F)CC3)o2)cc1`, the “Against Replicating Mtb IC90 (uM, GFP)” value in test [1] is on record as “None”. Besides, in test [2], the IC90 is 1 µM and the “Against carbon starved non-replicating Mtb IC99 (uM, luciferase)” value is “None”.

As for `COCC[S+]([O-])c1nnc(-c2ccc(Cl)cc2)o1` (stereo not shown) [drawing 196], the concentration for an effect of 90% (IC90) in test [1] worked out at 31 µM. For the same compound, the IC99 in test [2] stood at 31 µM.

Take `CCOC(=O)CSc1nnc(-c2ccccc2)o1`: the IC90 in test [1] came to 500 µM. Besides, the IC99 in test [2] is 250 µM.

As to `c1ccc(-c2nnc(SCCC3OCCCO3)o2)cc1` [drawing 168], the IC90 in test [1] was determined as 125 µM. Also, the IC99 in test [2] was found to be 62 µM.

Take `c1ccc(-c2nnc(SCc3cccnc3)o2)cc1` [drawing 178]: the IC90 in test [1] was found to be 125 µM. In addition, the IC99 in test [2] amounted to 250 µM.

As to `COc1cc(-c2nnc(SCc3ccccn3)o2)ccc1F`, the “Against Replicating Mtb IC90 (uM, GFP)” value in test [1] is listed as “None”. Also, the IC99 in test [2] was 16 µM.

For `c1ccc(CSc2nnc(-c3ccncc3)o2)nc1`, the IC90 in test [1] is more than 500 µM. For the same compound, in test [2], the IC99 was found to be 500 µM.

Take `[N-]=[N+]=NCCOCCNC(=O)CCCn1cc(C[S+]([O-])c2nnc(-c3ccc(F)cc3)o2)nn1` (stereo not shown): the IC90 in test [1] stood at 500 µM. In test [2], the IC99 amounted to 500 µM and the IC90 came out at 125 µM.

Regarding `O=C(CSc1nnc(-c2ccccc2)o1)c1ccc(Br)cc1`, the IC90 in test [1] was more than 500 µM. In test [2], the “Against carbon starved non-replicating Mtb IC99 (uM, luciferase)” value was “None”.

As to `COCCSc1nnc(-c2ccncc2)o1`, the IC90 in test [1] was more than 500 µM. Moreover, in test [2], the IC99 came out at 500 µM.

As to `C#CCSc1nnc(-c2ccc(Cl)cc2)o1`, the IC90 in test [1] is 31 µM. Besides, the IC99 in test [2] is 16 µM.

As for `c1cc(-c2nnc(SCCC3OCCCO3)o2)ccn1`, the IC90 in test [1] is more than 500 µM. Besides, the “Against carbon starved non-replicating Mtb IC99 (uM, luciferase)” value in test [2] is “None”.

In the case of `Oc1cccc(-c2nnc(SCc3ccccn3)o2)c1`, the IC90 in test [1] turned out to be 125 µM. In addition, in test [2], the IC99 stood at 62 µM.

As to `Cc1ccc(-c2nnc(SCc3ccccn3)o2)cc1`, the IC90 in test [1] came to 31 µM. Moreover, the IC99 in test [2] is 16 µM.

In the case of `O=S(=O)(Cc1ccccc1)c1nnc(-c2ccccc2)o1` [drawing 214], the IC90 in test [1] is 125 µM. The IC99 in test [2] is 16 µM.

Consider `COC(=O)CCCOc1ccc(CSc2nnc(-c3ccc(Cl)cc3)o2)nc1` [drawing 233], for which the IC90 in test [1] amounted to 31 µM. Moreover, the IC99 in test [2] was determined as 16 µM.

With `COCCSc1nnc(-c2ccccc2)o1` [drawing 175], the IC90 in test [1] was 125 µM. For the same compound, the concentration for an effect of 99% (IC99) in test [2] came to 16 µM.

Regarding `[N-]=[N+]=NCCCOc1ccc(CSc2nnc(-c3ccc(F)cc3)o2)nc1`, in test [1], the IC90 turned out to be 31 µM. Moreover, the IC99 in test [2] came out at 16 µM.

For `COC(=O)CCCOc1ccc(-c2nnc(SCc3ccccn3)o2)cc1`, the IC90 in test [1] turned out to be 500 µM. In test [2], the IC99 was determined as 250 µM.

Turning to `[N-]=[N+]=NCCOCCNC(=O)CCCOc1ccc(CSc2nnc(-c3ccc(Cl)cc3)o2)nc1` [drawing 237], the IC90 in test [1] worked out at 62 µM. Further, the IC99 in test [2] is 62 µM.

Turning to `[N-]=[N+]=NCCOCCNC(=O)CCCOc1ccc(CSc2nnc(-c3ccc(F)cc3)o2)nc1`, in test [1], the IC90 was 125 µM. Further, the “Against carbon starved non-replicating Mtb IC99 (uM, luciferase)” value in test [2] was “None”.

For `c1ccc(-c2nnc(SCC3CC3)o2)cc1`, in test [1], the IC90 worked out at 125 µM. Besides, the IC99 in test [2] stood at 31 µM.

Turning to `COc1ccc(-c2nnc(SCc3ccccn3)o2)cc1`, the IC90 in test [1] was 62 µM. The IC99 in test [2] is 16 µM.

With `Fc1ccc(CSc2nnc(-c3ccncc3)o2)cc1`, the IC90 in test [1] is more than 500 µM. Besides, in test [2], the “Against carbon starved non-replicating Mtb IC99 (uM, luciferase)” value is listed as “None”.

Regarding `OCCn1cc(CSc2nnc(-c3ccc(Cl)cc3)o2)nn1`, the IC90 in test [1] was 62 µM. In addition, the IC99 in test [2] turned out to be 31 µM.

Take `CS(=O)(=O)c1nnc(-c2ccccc2)o1`: in test [1], the IC90 came out at 250 µM. Moreover, the IC99 in test [2] was 62 µM.

On to `[O-][n+]1ccccc1CSc1nnc(-c2ccccc2)o1` [drawing 194], for which, in test [1], the IC90 was 62 µM. Moreover, the IC99 in test [2] amounted to 125 µM.

Turning to `c1ccc(-c2nnc(SCc3ccncc3)o2)cc1` [drawing 179], the IC90 in test [1] was found to be 250 µM. Moreover, in test [2], the IC99 is 500 µM.
